From patent US20150290192A1, “INHIBITORS OF BRUTON'S TYROSINE KINASE” (HOFFMANN-LA ROCHE INC., priority 2012, published 2015)
Read-outs that look alike come from different tables or passages of the source.

Assays:
[1] = Pharmacokinetics in mouse; type: in vivo
[2] = tested on: human mast cells (FCεRI activation); experiment: Human mast cell activation, mediator release after FCεRI activation; type: cell-based; conditions: N = 3 donors
Experimental: One million human cord blood derived CD34+ hematopoietic stem cells (HSCs) from different donors (AllCells #CB008F-S, Emeryville, Calif.) were cultured for eight weeks in a serum-free complete medium (StemPro-34 with supplements; Invitrogen, Carlsbad, Calif.), with recombinant h-SCF (100 ng/ml) and h-IL6 (50 ng/ml). During the first week of culturing, recombinant h-IL3 (10 ng/ml) was also included to support HSCs differentiation. After 8 weeks of culture, cells were stimulated with recombinant h-IL-4 (10 ng/ml) for 5 days. Confirmation of the mast cell differentiation process was routinely done by FACS to check for c-kit and FcsRI expression; differentiated cells were routinely more than 90% c-kit positive, FceRI positive. Differentiated mast cells were sensitized with […] anti-NP IgE (Serotec, Raleigh, N.C.) overnight at 37° C. Cells were washed and then treated with Compound 1 for 1 hour at 37° C. After treatment, cells were cross-linked with […] NP(30)-BSA (Biosearch Technologies, Novato Calif.) for 30 minutes (for histamine and lipid mediator assessment) or overnight (for cytokine assessment). Culture supernatants were collected and assayed for histamine (Oxford Biomedical Research, Rochester Hills, Mich.), PGD2 and LTC4 (Cayman Chemical Company, Ann Arbor Mich.), and IL-5 and IL-13 (Bio-Rad Bio-Plex Pro cytokine quantification kit) release as per kits' instructions. Compound 1, Compound 2 and Compound 3 reduced the release of these mediators into the supernatant in a concentration dependent manner up to 100% efficacy and the IC50 values are reported in Table 2.

CN1CCC(c2ccc(Nc3cc(-c4ccnc(-n5ncc6cc(C(C)(C)C)cc(F)c6c5=O)c4CO)nn(C)c3=O)nc2)CC1 [Compound 1, 6-tert-Butyl-8-fluoro-2-{3-hydroxymethyl-4-[1-methyl-5-(1′-methyl-1′,2′,3′,4′,5′,6′-hexahydro-[3,4′]bipyridinyl-6-ylamino)-6-oxo-1,6-dihydro-pyridazin-3-yl]-pyridin-2-yl}-2H-phthalazin-1-one]
CL ([1]; 1.0 mg/kg (iv)): moderate
Oral Bioavailability ([1]; 1.0 (iv), 10 (po) mg/kg): low
clearance ([1]; plasma, 1.0 mg/kg (iv)): 26 mL/min/kg
bioavailability ([1]; plasma, 10 mg/kg, 1.0 (iv), 10 (po) mg/kg): 12%
IC50 ([2]; read-out: IC50 1L-13 release): 11.6 nM
IC50 ([2]; read-out: IC50 GM-CSF release): 3.77 nM
IC50 ([2]; read-out: IC50 Histamine release): 14.7 nM
IC50 ([2]; read-out: IC50 IL-5 release): 7.32 nM
IC50 ([2]; read-out: IC50 LTC4 release): 4.28 nM
IC50 ([2]; read-out: IC50 PGD2 release): 6.31 nM
